In PMC2882332, “Species Used for Drug Testing Reveal Different Inhibition Susceptibility for 17beta-Hydroxysteroid Dehydrogenase Type 1” (PLoS ONE, 2010):

The compounds below were run against T1, human 17β-HSD 4 (Homo sapiens, UniProt P51659) (assay: In vitro enzymatic activity, recombinant human 17β-HSD 4 SDR-domain (estradiol oxidation)). Settings: 2 µM compound, 21 nM 3H-estradiol, NAD+, pH 7.7.
T1 construct: For 17β-HSD 4 only the SDR-domain converting the steroids was subcloned; made in house; host or cells: E.coli BL21 DE3 Codon Plus RP
T1 sequence (P51659 1-305 limits assumed): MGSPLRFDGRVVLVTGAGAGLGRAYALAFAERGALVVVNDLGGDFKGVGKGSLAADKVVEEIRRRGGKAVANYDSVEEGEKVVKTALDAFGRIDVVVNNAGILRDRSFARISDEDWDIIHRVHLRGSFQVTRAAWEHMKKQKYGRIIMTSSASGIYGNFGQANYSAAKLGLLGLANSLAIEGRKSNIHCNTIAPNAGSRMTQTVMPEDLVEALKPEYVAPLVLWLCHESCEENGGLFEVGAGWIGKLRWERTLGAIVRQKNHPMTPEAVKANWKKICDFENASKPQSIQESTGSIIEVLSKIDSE
Type: biochemical
Source text: Full length cDNAs of several 17β-HSDs type 1 originating from different species were cloned either into the pQE30 vector (human 17β-HSD 1, coding for acc. no. NP_000404) for expression as His-Tag protein or into a modified pGex-2T vector [63] (mouse 17β-HSD 1, acc. no. NP_034605; rat 17β-HSD 1, acc. no. NP_036983; marmoset 17β-HSD 1, acc. no. AAG01115; porcine 17β-HSD 1, acc. no. NP_001121944) for expression as GST-fusion proteins. The marmoset 17β-HSD 1 enzyme sequence was updated by the missing N-terminal part (AF272013) and the new porcine sequence was submitted to GenBank (NP_001121944). Human 17β-HSDs 2, 4, 5 (AKR1C3, the latter kindly provided by Dr. T. Penning) and 7 were all cloned into the modified pGEX-2T vector. For 17β-HSD 4 only the SDR-domain converting the steroids was subcloned. Plasmids were transformed into E.coli BL21 DE3 Codon Plus RP (Stratagene) and enzyme expression was induced by 0.5 mM IPTG. After 4h incubation at 37°C with continuous shaking bacteria were pelleted by centrifugation at 10.000×g. Pellets were stored until use at −20°C.
The bacteria containing recombinant enzymes were resuspended in PBS and enzymatic assays were performed in 100 mM sodium phosphate buffer at pH 6.6 for the reductive reaction and at pH 7.7 for the oxidative reaction. […] All substrates were purchased from NEN/Perkin Elmer. The cofactors NADPH (Sigma; for reductive reactions) and NAD^+ (Serva, for oxidative reactions) were used at final concentrations of 0.5 mg/ml. […] The incubation at 37°C was stopped with 0.21 M ascorbic acid in methanol∶acetic acid 99∶1 (v∶v) after the time needed to convert approximately 30% of the substrate in a control assay with 1% DMSO, without inhibitor candidates. […] The solvent used was acetonitrile∶water (43∶57, v∶v) at a flow rate of 1 ml/min. Radioactivity was detected by online-scintillation counting (Berthold LB506D) after mixing with ReadyFlowIII (Beckman). Conversion was calculated from integration of substrate and product peaks. […] All assays were run in duplicates of two independent experiments and mean values are reported. The IC50 values were determined by the One Ligand Binding model of SigmaPlot kinetics module.

Question: `C[C@]12CC[C@@H]3c4ccc(O)cc4CC[C@H]3[C@@H]1[C@@H](CNC(=O)c1ccc(F)cc1)CC2=O` [Compound 1] was tested. Which Observed % inhibition did it give?
Answer: 7.2%

Question: `C[C@]12CC[C@@H]3c4ccc(O)cc4CC[C@H]3[C@@H]1[C@@H](CCCC(=O)N1CCOCC1)CC2=O` [Compound 2] was tested. Which Observed % inhibition did it give?
Answer: 0.1%

Question: Which Observed % inhibition does the source give for `Cc1cnc(NC(=O)CC[C@@H]2CC(=O)[C@@]3(C)CC[C@@H]4c5ccc(O)cc5CC[C@H]4[C@H]23)s1` [Compound 3] here?
Answer: 2.1%

Question: How did the Observed % inhibition turn out when `COc1ccc(-c2cn(CCC[C@H]3CC(=O)[C@@]4(C)CC[C@@H]5c6ccc(O)cc6CC[C@H]5[C@H]34)nn2)cc1` [Compound 4] was run?
Answer: 5.5%

Question: For `C[C@]12CC[C@@H]3c4ccc(O)cc4CC[C@H]3[C@@H]1C[C@H](CC(=O)NCc1cccnc1)C2=O` [Compound 5, reference compound], which Observed % inhibition is on record?
Answer: 5.6%
